# Literature values as cited in patent US20200268817A1, “CANNABINOID COMPOSITIONS, METHODS OF MANUFACTURE AND USE THEREOF” (priority 2016, published 2020).
# Where two headings read alike, the source gives them in different places.
# Tests used:
# [1] = test system: patients with acute paranoid schizophrenia; settings: for psychotic symptoms (Brief Psychiatric Rating Scale, Positive and Negative Syndrome Scale): after 2 and 4 weeks, 42 patients
# [2] = test system: synovial cells isolated from mice
# CB2 = CB2 (Homo sapiens, UniProt P34972)
# Sequence of CB2 (P34972 whole entry, species assumed): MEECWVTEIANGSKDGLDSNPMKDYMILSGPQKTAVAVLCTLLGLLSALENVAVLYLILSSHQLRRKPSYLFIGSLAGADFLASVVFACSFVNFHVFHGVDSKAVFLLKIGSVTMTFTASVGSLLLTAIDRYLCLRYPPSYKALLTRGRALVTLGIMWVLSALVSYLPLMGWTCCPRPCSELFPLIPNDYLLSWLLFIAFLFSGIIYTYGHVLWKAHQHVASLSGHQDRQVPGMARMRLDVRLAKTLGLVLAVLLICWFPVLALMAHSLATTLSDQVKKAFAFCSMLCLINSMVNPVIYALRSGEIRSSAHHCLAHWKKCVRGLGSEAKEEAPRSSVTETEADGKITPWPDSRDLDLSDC
# schizophrenic patients = settings: over six weeks
# prostaglandin E2 = settings: more potent than aspirin
# patients [3] = settings: low cannabinoid dosages; vs placebo
# [4] = test system: advanced cancer patients with substantial appetite loss; settings: 469 advanced cancer patients; p=0.0001
# patients [5] = settings: Phase III study (31)
# [6] = test system: peripheral blood mononuclear cells; settings: added to peripheral blood mononuclear cells in vitro
# advanced cancer patients = settings: patients receiving chemotherapy; compared to placebo
structure (smiles),measurement,setting,value
CCN1CCCC1CNC(=O)c1cc(S(=O)(=O)CC)c(N)cc1OC (centres unmarked) [amisulpride],"psychotic symptoms (Brief Psychiatric Rating Scale, Positive and Negative Syndrome Scale)",[1],significant decrease of psychotic symptoms
"C=C(C)[C@@H]1CCC(C)=C[C@H]1c1c(O)cc(CCCCC)cc1O [CBD, Cannabidiol]",release of TNF-alpha,[2],suppressed
same,affinity for CB2 receptor,CB2,very low affinity
same,"side effects (extrapyramidal symptoms, increase in prolactin, weight gain) compared to amisulpride",[1]; 4 week trial,significantly fewer side effects
same,"psychotic symptoms (Brief Psychiatric Rating Scale, Positive and Negative Syndrome Scale)",[1],significant decrease of psychotic symptoms
same,positive and cognitive symptoms,"schizophrenic patients; add-on to anti-psychotic, 88 patients",improved positive and cognitive symptoms
same,adverse effects,schizophrenic patients,no severe adverse effects
"C=C1CC/C=C(\C)CC[C@@H]2[C@@H]1CC2(C)C [Beta caryophyllene, Beta-caryophyllene]",binding to CB2,CB2,binds
same,TNF alpha and IL-lb expression,human peripheral blood,inhibits
COc1cc(-c2cc(=O)c3c(O)c(C/C=C(\C)CCC=C(C)C)c(O)cc3o2)ccc1O [Cannaflavin A],potency as inhibitor of prostaglandin E2 relative to aspirin,prostaglandin E2,30 ×
"CCCCCc1cc(O)c2c(c1)OC(C)(C)[C@@H]1CCC(C)=C[C@@H]21 [THC, Tetrahydrocannabinol]",differences between the groups in improvement in appetite or weight-gain,patients [3],No significant differences
same,start of psychotropic effects,inhaled,within seconds to a few minutes
same,time to maximum psychotropic effects,inhaled,15 to 30 min
same,time until psychotropic effects taper off,inhaled,2 to 3 h
same,delay until psychotropic effects set in,oral ingestion,30 to 90 min
same,time to maximum psychotropic effects,oral ingestion,120 to 180 min
same,duration of psychotropic effects,"oral ingestion, depending on dose and specific effect",4 to 12 h
CC(=O)O[C@]1(C(C)=O)CC[C@H]2[C@@H]3C=C(C)C4=CC(=O)CC[C@]4(C)[C@H]3CC[C@@]21C [megestrol acetate],patients reporting appetite improvement,[4],75%
same,true response (weight gain of >=10% from baseline weight),patients [5],11%
O=c1cc(-c2ccc(O)c(O)c2)oc2cc(O)cc(O)c12 [Luteolin],"production of TNFa, IL-lb, and IL-6",[6],suppress
CCCCCc1cc(O)c2c(c1)OC(C)(C)[C@@H]1CCC(C)=C[C@@H]21 [dronabinol],patients with decreased nausea,"cancer patients; cancer patients, placebo 7%",20%
same,patients with increased appetite,"cancer patients; cancer patients, placebo 8%",38%
same,patients who gained >=2 kg,"cancer patients; placebo 10.5%, did not reach significance",22%
same,patients reporting appetite improvement,[4],49%
same,"taste and smell perception, appetite and caloric intake",advanced cancer patients,improvement
same,true response (weight gain of >=10% from baseline weight),patients [5],3%
